According to patent US20240390484A1 (priority 2022, published 2024):

What was measured:
Vero E6 cells = type: cell-based; conditions: ready-to-use S2P RNA, 4 μg, 48 hours post transfection; 48/40.5/10/1.5 mol %
[1] = Particle size and polydispersity index (PDI) by Dynamic Light Scattering; type: physicochemical; conditions: for “Ready-to-use” S2P RNA formulation PDI / “Ready-to-use” S2P RNA formulation Size: 48/40.5/10/1.5 mol %, blank-LNP added to lyophilized S2P RNA (55 ug/vial), N/P 7; for Blank-LNP PDI / Blank-LNP Size: 48/40.5/10/1.5 mol % ionizable lipid/cholesterol/DSPC/DMG-PEG
Protocol: (§1) Lipid nanoparticles (LNPs) were formed or formulated by rapid mixing of an ethanol phase and an aqueous phase using a microfluidic device. The aqueous phase included a 50 mM citrate buffer (pH 5.5). The ethanol phase included an ionizable lipid (as described herein), cholesterol (Jiangsu Southeast Nanomaterials), 1,2-diastearoyl-sn-glycero-3-phosphocholine (DSPC) (Jiangsu Southeast Nanomaterials) and 1,2-dimyristoyl-rac-glycero-3-methoxypolyethylene glycol-2000 (DMG-PEG2000) (SINOPEG). A series of ionizable lipids were evaluated. These four lipid components were mixed at defined molar ratios in ethanol, for instance, at a molar ratio of 48:40.5:10:1.5 (ionizable lipid:cholesterol:DSPC:DMG-PEG2000). The generated LNP particles were purified in citrate buffer (containing sucrose) and characterized with respect to particle size, polydispersity index (PDI) and ionizable lipid concentration. The LNP solution was then diluted to the target concentration and stored at 2-8° C.
(§2) In the case of a filled LNP, for example, an LNP-encapsulated S-2P RNA liquid drug product, the preparation protocol is essentially the same, except that it was an aqueous solution of S-2P RNA in citrate buffer pH 5-6 that constitutes the aqueous phase for LNP formation. The LNP-encapsulated RNA formulation is also referred to as “RNA-LNP” in this disclosure. Regarding characterization, particle size and polydispersity index (PDI) of the RNA-LNP were determined by Dynamic Light Scattering (DLS); RNA encapsulation efficiency and concentration were determined by means of Ribogreen® assay and RNA purity was determined by agarose gel electrophoresis.
(§3) The “ready-to-use” RNA product was manufactured by transferring a predetermined amount of already formed LNP in solution to a sealed vial containing the lyophilized RNA composition, followed by mixing at room temperature. The amount of LNP added per vial (e.g., 30-100 μg RNA per vial) was determined based on the molar ionizable lipid:RNA (N/P) molar ratio of 7. In this disclosure, “ready-to-use” S-2P RNA formulations (also referred to as “LNP(S-2P RNA)”) containing 30-100 μg/mL S-2P RNA were prepared, and then characterized with respect to particle size, polydispersity index, as well as RNA concentration, complexation efficiency, and purity using the same methods as described above in Example 3.

[2] = Stability of blank-LNP at 2-8° C. (particle size, PDI); type: physicochemical; conditions: blank-LNP 48/40.5/10/1.5 mol %
Protocol: as §1
Each generated blank-LNP formulation was added to and mixed with lyophilized S2P RNA, altogether yielding a series of “ready-to-use” S2P RNA test items containing the different ionizable lipids. The pharmaceutical characteristics (Table 3) and in vitro transfection efficiency (Table 4) of these “ready-to-use” RNA test items were compared head-to-head. In parallel, the stability profiles of these […] blank-LNP formulations (i.e. without RNA complexation) were assessed at 2-8° C. (see Table 5).
The generated fourteen blank-LNP formulations were characterized in terms of particle size and PDI, both at the end of manufacturing (T=0) and 8-week storage at 2-8° C. […] (defined as size increase ≤20 nm in 8 weeks), namely DMG-PEG2000 between at least 1-4 mol %, DSPC between at least 5-20 mol %, ionizable lipid between at least 30-70 mol % and cholesterol between at least 18.5-58.5 mol %.

BHK-21 cells = type: cell-based; conditions: ready-to-use S2P RNA, 4 μg, 48 hours post transfection; 48/40.5/10/1.5 mol %
[3] = RNA encapsulation/complexation efficiency by Ribogreen assay; type: physicochemical; conditions: 48/40.5/10/1.5 mol %; blank-LNP added to lyophilized S2P RNA (55 ug/vial), N/P 7
Protocol: as §2, §3

| Compound | RBD expression in Vero E6 cells (Vero E6 cells) | “Ready-to-use” S2P RNA formulation PDI [1] | “Ready-to-use” S2P RNA formulation Size [1] | Blank-LNP PDI [1] | Blank-LNP Size [1] | Change in size (nm) vs. T0, T = 1 month ([2]; 1 month) | PDI, T = 1 month ([2]; 1 month) | Size, T = 1 month ([2]; 1 month) | Change in size (nm) vs. T0, T = 2 weeks [2] | PDI, T = 2 weeks [2] | Size, T = 2 weeks [2] | PDI, T = 0 [2] | Size, T = 0 [2] | RBD expression in BHK-21 cells (BHK-21 cells) | “Ready-to-use” S2P RNA formulation RNA complexation efficiency [3] |
| --- | --- | --- | --- | --- | --- | --- | --- | --- | --- | --- | --- | --- | --- | --- | --- |
| CCCCCCOCCC/C=C/COC(=O)CCCCCCCCC(CCCCCCCCC(=O)OC/C=C/CCCOCCCCCC)OC(=O)CCCN(C)C [Lipid #11] | 0.20 ng/mL | 0.11 | 266 nm | 0.09 | 165 nm | +59 nm | 0.06 | 224 nm | +42 nm | 0.04 | 207 nm | 0.09 | 165 nm | 0.52 ng/mL | 34% |
| CCCCCCCCCCC(CCCCCCCCCC)C(=O)OCCCCCCOc1ccc(OCCCCCCOC(=O)C(CCCCCCCCCC)CCCCCCCCCC)c(COC(=O)CCCN(C)C)c1 [Lipid #8] | <LOD | 0.11 | 130 nm | 0.13 | 86 nm |  | 0.17 | 90 nm | −3 nm | 0.07 | 83 nm | 0.13 | 86 nm | <LOD | 34% |
